In patent EP0454444A1, “Glutarimide derivatives and herbicides” (NISSAN CHEMICAL INDUSTRIES LTD., priority 1990, dated 1991):

How the values were obtained:
Experiment in all cases: Herbicidal effect test by soil treatment
Format in all cases: in vivo
[1] = tested on: barnyardgrass (Echinochloa crusgalli); conditions: three weeks after spraying
Excerpt: (§1) In a plastic box of 15 cm length, 22 cm width and 6 cm depth, there was placed a sterilized dilvial soil, and seeds of barnyardgrass (Echinochloa crusgalli), large crabgrass (Digitaria adscendens), annual sedge (Cyperus microiria), black nightshade (Solanum nigrum L.), hairly galinosoga (Galinsoga ciliat), rorippa ssp. (Rorippa atrovirens), rice (Oryza sativa), corn (Zea mays), wheat (Triticum aestivum), soybean (Glysine max) and cotton (Gossypium herbaceum) were sown mixedly. After covering soil to about 1 cm over the seeds, herbicides were sprayed evenly on the soil surface to predetermined proportions of the active ingredient In spraying, the wettable powder, emulsifiable concentrate, dry flowable or flowable in the above formulation examples were diluted with water and sprayed over the entire surface by means of a small sprayer. Three weeks after spraying, the herbicidal effect on crop plants including rice, corn, wheat, soybean, cotton and various kinds of weeds were examined according to the judgement criteria shown below. Judgement criteria
(§2) The above growth control rates are determined by measuring the top fresh weights of the treated plants and those of the non-treated plants, and culculated from the following formula: [formula]

[2] = tested on: large crabgrass (Digitaria adscendens); conditions: three weeks after spraying
Excerpt: as §1, §2

[3] = tested on: rorippa ssp. (Rorippa atrovirens); conditions: three weeks after spraying
Excerpt: as §1, §2

[4] = tested on: soybean (Glysine max); conditions: crop plant, three weeks after spraying
Excerpt: as §1, §2

[5] = tested on: black nightshade (Solanum nigrum L.); conditions: three weeks after spraying
Excerpt: as §1, §2

[6] = tested on: rice (Oryza sativa); conditions: crop plant, three weeks after spraying
Excerpt: as §1, §2

[7] = tested on: wheat (Triticum aestivum); conditions: crop plant, three weeks after spraying
Excerpt: as §1, §2

[8] = tested on: cotton (Gossypium herbaceum); conditions: crop plant, three weeks after spraying
Excerpt: as §1, §2

[9] = tested on: annual sedge (Cyperus microiria); conditions: three weeks after spraying
Excerpt: as §1, §2

[10] = tested on: corn (Zea mays); conditions: crop plant, three weeks after spraying
Excerpt: as §1, §2

[11] = tested on: hairly galinosoga (Galinsoga ciliat); conditions: three weeks after spraying
Excerpt: as §1, §2

CC(C)OC(=O)c1cc(N2C(=O)CC(C(F)(F)F)C(C)C2=O)c(F)cc1Cl (stereo not drawn) [1-3]
herbicidal effect, N (Echinochloa crusgalli) ([1]; application amount 0.4 g/a): 5 (Growth control,rates of more than 90% (almost completely withered)) | herbicidal effect, N (Echinochloa crusgalli) ([1]; application amount 0.8 g/a): 5 (Growth control,rates of more than 90% (almost completely withered)) | herbicidal effect, N (Echinochloa crusgalli) ([1]; application amount 1.6 g/a): 5 (Growth control,rates of more than 90% (almost completely withered)) | herbicidal effect, M (Digitaria adscendens) ([2]; application amount 0.4 g/a): 5 (Growth control,rates of more than 90% (almost completely withered)) | herbicidal effect, M (Digitaria adscendens) ([2]; application amount 0.8 g/a): 5 (Growth control,rates of more than 90% (almost completely withered)) | herbicidal effect, M (Digitaria adscendens) ([2]; application amount 1.6 g/a): 5 (Growth control,rates of more than 90% (almost completely withered)) | herbicidal effect, I (Rorippa indica) ([3]; application amount 0.4 g/a): 5 (Growth control,rates of more than 90% (almost completely withered)) | herbicidal effect, I (Rorippa indica) ([3]; application amount 0.8 g/a): 5 (Growth control,rates of more than 90% (almost completely withered)) | herbicidal effect, I (Rorippa indica) ([3]; application amount 1.6 g/a): 5 (Growth control,rates of more than 90% (almost completely withered)) | herbicidal effect, S (Glysine max) ([4]; application amount 0.4 g/a): 0 (Growth control rates of less than 5% (substantially no effect)) | herbicidal effect, S (Glysine max) ([4]; application amount 0.8 g/a): 0 (Growth control rates of less than 5% (substantially no effect)) | herbicidal effect, S (Glysine max) ([4]; application amount 1.6 g/a): 2 (Growth control rates of 20 to 40%) | herbicidal effect, H (Solanum nigrum L.) ([5]; application amount 0.4 g/a): 5 (Growth control,rates of more than 90% (almost completely withered)) | herbicidal effect, H (Solanum nigrum L.) ([5]; application amount 0.8 g/a): 5 (Growth control,rates of more than 90% (almost completely withered)) | herbicidal effect, H (Solanum nigrum L.) ([5]; application amount 1.6 g/a): 5 (Growth control,rates of more than 90% (almost completely withered)) | herbicidal effect, R (Oryza sativa) ([6]; application amount 0.4 g/a): 4 (Growth control rates of 70 to 90%) | herbicidal effect, R (Oryza sativa) ([6]; application amount 0.8 g/a): 5 (Growth control,rates of more than 90% (almost completely withered)) | herbicidal effect, R (Oryza sativa) ([6]; application amount 1.6 g/a): 5 (Growth control,rates of more than 90% (almost completely withered)) | herbicidal effect, W (Triticum vulgare) ([7]; application amount 0.4 g/a): 2 (Growth control rates of 20 to 40%) | herbicidal effect, W (Triticum vulgare) ([7]; application amount 0.8 g/a): 3 (Growth control rates of 40 to 70%) | herbicidal effect, W (Triticum vulgare) ([7]; application amount 1.6 g/a): 5 (Growth control,rates of more than 90% (almost completely withered)) | herbicidal effect, C (Gossypium herbaceum) ([8]; application amount 0.4 g/a): 0 (Growth control rates of less than 5% (substantially no effect)) | herbicidal effect, C (Gossypium herbaceum) ([8]; application amount 0.8 g/a): 1 (Growth control rates of 5 to 20%) | herbicidal effect, C (Gossypium herbaceum) ([8]; application amount 1.6 g/a): 3 (Growth control rates of 40 to 70%) | herbicidal effect, K (Cyperus microiria) ([9]; application amount 0.4 g/a): 5 (Growth control,rates of more than 90% (almost completely withered)) | herbicidal effect, K (Cyperus microiria) ([9]; application amount 0.8 g/a): 5 (Growth control,rates of more than 90% (almost completely withered)) | herbicidal effect, K (Cyperus microiria) ([9]; application amount 1.6 g/a): 5 (Growth control,rates of more than 90% (almost completely withered)) | herbicidal effect, T (Zea mays) ([10]; application amount 0.4 g/a): 2 (Growth control rates of 20 to 40%) | herbicidal effect, T (Zea mays) ([10]; application amount 0.8 g/a): 3 (Growth control rates of 40 to 70%) | herbicidal effect, T (Zea mays) ([10]; application amount 1.6 g/a): 4 (Growth control rates of 70 to 90%) | herbicidal effect, D (Galinsoga ciliat) ([11]; application amount 0.4 g/a): 5 (Growth control,rates of more than 90% (almost completely withered)) | herbicidal effect, D (Galinsoga ciliat) ([11]; application amount 0.8 g/a): 5 (Growth control,rates of more than 90% (almost completely withered)) | herbicidal effect, D (Galinsoga ciliat) ([11]; application amount 1.6 g/a): 5 (Growth control,rates of more than 90% (almost completely withered))

O=C1CC(C(F)(F)F)CC(=O)N1Cc1ccc(Cl)cc1 [1-31]
herbicidal effect, N (Echinochloa crusgalli) ([1]; application amount 6.3 g/a): 4 (Growth control rates of 70 to 90%) | herbicidal effect, M (Digitaria adscendens) ([2]; application amount 6.3 g/a): 4 (Growth control rates of 70 to 90%) | herbicidal effect, I (Rorippa indica) ([3]; application amount 6.3 g/a): 5 (Growth control,rates of more than 90% (almost completely withered)) | herbicidal effect, S (Glysine max) ([4]; application amount 6.3 g/a): 0 (Growth control rates of less than 5% (substantially no effect)) | herbicidal effect, H (Solanum nigrum L.) ([5]; application amount 6.3 g/a): 5 (Growth control,rates of more than 90% (almost completely withered)) | herbicidal effect, R (Oryza sativa) ([6]; application amount 6.3 g/a): 0 (Growth control rates of less than 5% (substantially no effect)) | herbicidal effect, W (Triticum vulgare) ([7]; application amount 6.3 g/a): 0 (Growth control rates of less than 5% (substantially no effect)) | herbicidal effect, C (Gossypium herbaceum) ([8]; application amount 6.3 g/a): 0 (Growth control rates of less than 5% (substantially no effect)) | herbicidal effect, K (Cyperus microiria) ([9]; application amount 6.3 g/a): 5 (Growth control,rates of more than 90% (almost completely withered)) | herbicidal effect, T (Zea mays) ([10]; application amount 6.3 g/a): 0 (Growth control rates of less than 5% (substantially no effect)) | herbicidal effect, D (Galinsoga ciliat) ([11]; application amount 6.3 g/a): 5 (Growth control,rates of more than 90% (almost completely withered))

O=C1COc2cc(F)c(N3C(=O)CC(C(F)(F)F)CC3=O)cc2N1 [1-25]
herbicidal effect, N (Echinochloa crusgalli) ([1]; application amount 1.6 g/a): 5 (Growth control,rates of more than 90% (almost completely withered)) | herbicidal effect, M (Digitaria adscendens) ([2]; application amount 1.6 g/a): 5 (Growth control,rates of more than 90% (almost completely withered)) | herbicidal effect, I (Rorippa indica) ([3]; application amount 1.6 g/a): 5 (Growth control,rates of more than 90% (almost completely withered)) | herbicidal effect, S (Glysine max) ([4]; application amount 1.6 g/a): 0 (Growth control rates of less than 5% (substantially no effect)) | herbicidal effect, H (Solanum nigrum L.) ([5]; application amount 1.6 g/a): 5 (Growth control,rates of more than 90% (almost completely withered)) | herbicidal effect, R (Oryza sativa) ([6]; application amount 1.6 g/a): 1 (Growth control rates of 5 to 20%) | herbicidal effect, W (Triticum vulgare) ([7]; application amount 1.6 g/a): 0 (Growth control rates of less than 5% (substantially no effect)) | herbicidal effect, C (Gossypium herbaceum) ([8]; application amount 1.6 g/a): 1 (Growth control rates of 5 to 20%) | herbicidal effect, K (Cyperus microiria) ([9]; application amount 1.6 g/a): 5 (Growth control,rates of more than 90% (almost completely withered)) | herbicidal effect, T (Zea mays) ([10]; application amount 1.6 g/a): 0 (Growth control rates of less than 5% (substantially no effect)) | herbicidal effect, D (Galinsoga ciliat) ([11]; application amount 1.6 g/a): 5 (Growth control,rates of more than 90% (almost completely withered))

CC(C)OC(=O)c1cc(N2C(=O)CC(C(C)C)C(C)C2=O)c(F)cc1Cl (stereo not drawn) [1-5]
herbicidal effect, N (Echinochloa crusgalli) ([1]; application amount 1.6 g/a): 4 (Growth control rates of 70 to 90%) | herbicidal effect, M (Digitaria adscendens) ([2]; application amount 1.6 g/a): 5 (Growth control,rates of more than 90% (almost completely withered)) | herbicidal effect, I (Rorippa indica) ([3]; application amount 1.6 g/a): 5 (Growth control,rates of more than 90% (almost completely withered)) | herbicidal effect, S (Glysine max) ([4]; application amount 1.6 g/a): 0 (Growth control rates of less than 5% (substantially no effect)) | herbicidal effect, H (Solanum nigrum L.) ([5]; application amount 1.6 g/a): 5 (Growth control,rates of more than 90% (almost completely withered)) | herbicidal effect, R (Oryza sativa) ([6]; application amount 1.6 g/a): 1 (Growth control rates of 5 to 20%) | herbicidal effect, W (Triticum vulgare) ([7]; application amount 1.6 g/a): 1 (Growth control rates of 5 to 20%) | herbicidal effect, C (Gossypium herbaceum) ([8]; application amount 1.6 g/a): 0 (Growth control rates of less than 5% (substantially no effect)) | herbicidal effect, K (Cyperus microiria) ([9]; application amount 1.6 g/a): 5 (Growth control,rates of more than 90% (almost completely withered)) | herbicidal effect, T (Zea mays) ([10]; application amount 1.6 g/a): 0 (Growth control rates of less than 5% (substantially no effect)) | herbicidal effect, D (Galinsoga ciliat) ([11]; application amount 1.6 g/a): 5 (Growth control,rates of more than 90% (almost completely withered))
